Source: US20230183193A1, “4-DIFLUOROMETHYL BENZOYL AMIDES WITH HERBICIDAL ACTION” (BAYER CROPSCIENCE AKTIENGESELLSCHAFT, priority 2017, published 2023)

What was measured:
Assay type in all cases: in vivo
Matricaria inodora = assay: Pre-emergence herbicidal action, MATIN; settings: dosage 320 g/ha, scored visually after 3 weeks vs untreated controls
Outline: (§1)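 Weed seeds were laid out in sandy loam and covered with soil, then the soil surface was treated with an aqueous suspension or emulsion of the formulated compound containing 0.2% wetting agent. Pots stayed in the greenhouse for 3 weeks before damage was rated visually against untreated plants.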

Viola tricolor [1] = assay: Post-emergence herbicidal action, VIOTR; settings: 80 g/ha, Table D
Outline: (§2)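 Post-emergence spray; one-leaf stage (2–3 wk after sowing), sandy loam, greenhouse. WP/EC in water, 600 to […], +0.2% wetting agent. Visual % damage vs untreated at ~3 wk; 100% = plants dead.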

Pharbitis purpureum = assay: Post-emergence herbicidal action, PHBPU; settings: 80 g/ha, Table D
Outline: as §2

Alopecurus myosuroides [2] = assay: Post-emergence herbicidal action, ALOMY; settings: 80 g/ha, Table C
Outline: as §2

ECHCG = assay: Post-emergence herbicidal action, ECHCG; settings: 80 g/ha, Table C
Outline: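 Weed and crop plants grown in sandy loam in the greenhouse, treated at the one-leaf stage 2–3 weeks after sowing. Damage scored visually after about 3 weeks vs untreated controls (0% = control, 100% = dead).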

Setaria viridis [3] = assay: Pre-emergence herbicidal action, SETVI; settings: dosage 320 g/ha, scored visually after 3 weeks vs untreated controls
Outline: as §1

Cyperus serotinus = assay: Pre-emergence herbicidal action, CYPES; settings: dosage 320 g/ha, scored visually after 3 weeks vs untreated controls
Outline: as §1

Alopecurus myosuroides [4] = assay: Pre-emergence herbicidal action, ALOMY; settings: dosage 320 g/ha, scored visually after 3 weeks vs untreated controls
Outline: as §1

Abutilon theophrasti [5] = assay: Post-emergence herbicidal action, ABUTH; settings: 80 g/ha, Table D
Outline: as §2

Avena fatua [6] = assay: Post-emergence herbicidal action, AVEFA; settings: 80 g/ha, Table C
Outline: as §2

Avena fatua [7] = assay: Pre-emergence herbicidal action, AVEFA; settings: dosage 320 g/ha, scored visually after 3 weeks vs untreated controls
Outline: as §1

Stellaria media [8] = assay: Post-emergence herbicidal action, STEME; settings: 80 g/ha, Table D
Outline: as §2

Amaranthus retroflexus [9] = assay: Pre-emergence herbicidal action, AMARE; settings: dosage 320 g/ha, scored visually after 3 weeks vs untreated controls
Outline: as §1

Setaria viridis [10] = assay: Post-emergence herbicidal action, SETVI; settings: 80 g/ha, Table C
Outline: as §2

Amaranthus retroflexus [11] = assay: Post-emergence herbicidal action, AMARE; settings: 80 g/ha, Table D
Outline: as §2

Viola tricolor [12] = assay: Pre-emergence herbicidal action, VIOTR; settings: dosage 320 g/ha, scored visually after 3 weeks vs untreated controls
Outline: as §1

Abutilon theophrasti [13] = assay: Pre-emergence herbicidal action, ABUTH; settings: dosage 320 g/ha, scored visually after 3 weeks vs untreated controls
Outline: as §1

Stellaria media [14] = assay: Pre-emergence herbicidal action, STEME; settings: dosage 320 g/ha, scored visually after 3 weeks vs untreated controls
Outline: as §1

Compound | herbicidal activity MATIN (Matricaria inodora) | herbicidal activity VIOTR (Viola tricolor [1]) | Herbicidal activity PHBPU (Pharbitis purpureum) | herbicidal activity ALOMY (Alopecurus myosuroides [2]) | Herbicidal activity ECHCG (ECHCG) | herbicidal activity SETVI (Setaria viridis [3]) | herbicidal activity CYPES (Cyperus serotinus) | herbicidal activity ALOMY (Alopecurus myosuroides [4]) | herbicidal activity ABUTH (Abutilon theophrasti [5]) | herbicidal activity AVEFA (Avena fatua [6]) | herbicidal activity AVEFA (Avena fatua [7]) | Herbicidal activity STEME (Stellaria media [8]) | herbicidal activity AMARE (Amaranthus retroflexus [9]) | herbicidal activity SETVI (Setaria viridis [10]) | herbicidal activity AMARE (Amaranthus retroflexus [11]) | herbicidal activity VIOTR (Viola tricolor [12]) | herbicidal activity ABUTH (Abutilon theophrasti [13]) | Herbicidal activity STEME (Stellaria media [14])
Cn1nnnc1NC(=O)c1ccc(C(F)F)c(S(C)(=O)=O)c1C1CC1 [Example 1-27] | 100% | 100% | 90% | 100% | 100% | 100% | 100% | 100% | 100% | 100% | 100% | 100% | 100% | 100% | 100% | 100% | 100% | 100%
CCSc1c(C(F)F)ccc(C(=O)Nc2ncnn2C)c1Cl [Example 4-52] | 100% | 90% | 100% | 90% | 100% | 100% | 80% | 100% | 90% | 100% | 100% | 90% | 100% | 100% | 100% | 100% | 100% | 100%
Cn1nnnc1NC(=O)c1ccc(C(F)F)c(S(C)(=O)=O)c1Br [Example 1-63] | 100% | 100% | 100% | 90% | 90% | 100% | 100% | 100% | 100% | 100% | 100% | 100% | 100% | 100% | 100% | 100% | 100% | 100%
CCc1c(C(=O)Nc2nnc(C)o2)ccc(C(F)F)c1S(C)(=O)=O [Example 7-13] | 100% | 100% | 100% | 90% | 100% | 100% | 100% | 100% | 100% | 100% | 100% | 100% | 100% | 100% | 100% | 100% | 100% | 100%
CC[S+]([O-])c1c(C(F)F)ccc(C(=O)Nc2ncnn2C)c1Cl (stereo not drawn) [Example 4-53] | 100% | 100% | 90% | 90% | 90% | 100% | 100% | 100% | 100% | 100% | 100% | 90% | 100% | 100% | 100% | 100% | 100% | 100%
CCn1nnnc1NC(=O)c1ccc(C(F)F)c([S+](C)[O-])c1C1CC1 (stereo not drawn) [Example 2-26] | 100% | 100% | 90% | 90% | 100% | 100% | 90% | 100% | 90% | 100% | 100% | 100% | 100% | 100% | 100% | 100% | 100% | 100%
CCSc1c(C(F)F)ccc(C(=O)Nc2nnnn2CC)c1C1CC1 [Example 2-28] | 100% | 100% | 100% | 90% | 100% | 100% | 100% | 100% | 100% | 100% | 100% | 100% | 100% | 100% | 100% | 100% | 100% | 100%
CCn1nnnc1NC(=O)c1ccc(C(F)F)c([S+](C)[O-])c1F (stereo not drawn) [Example 2-38] | 100% | 100% | 90% | 90% | 100% | 100% | 100% | 100% | 90% | 90% | 100% | 100% | 100% | 100% | 100% | 100% | 100% | 100%
